The text below walks through data of patent US11311513B2, “Methods, agents, and compositions for the treatment of acute myeloid leukemia” (UNIVERSITY OF CINCINNATI, priority 2017, dated 2022).

Series [1] deals with MONOMAC-6 cells. Briefly: MTS cell viability, MONOMAC-6. Format: cell-based. The following applies: 48 hrs. How it is done: In order to identify chemical compounds that may target TET1 signaling, the drug-sensitivity/gene expression database of a total of 20,602 chemical compounds in the NCI-60 collection of cancer cell samples was searched.
All cell lines were authenticated through STR profiling yearly.
These experiments were conducted as described previously (Jiang, X., et al., Blockade of miR-150 Maturation by MLL-Fusion/MYC/LIN-28 Is Required for MLL-Associated Leukemia, Cancer Cell 22:524-35 (2012); Li, Z., et al., miR-196b directly targets both HOXA9/MEIS1 oncogenes and FAS tumour suppressor in MLL-rearranged leukaemia, Nat Commun 2:688 (2012)) with ApoLive-Glo Multiplex Assay Kit, or CellTiter 96 AQueous Non-Radioactive Cell Proliferation Assay Kit (Promega, Madison, Wis.).

In series [2] the test system is MLL-AF9-induced AML. Briefly: MLL-AF9 AML secondary BMT mouse model. In kind it is in vivo, mice. To be noted: for mice cured / median survival: 2.5 mg/kg i.p. once per day for 10 days; for median survival: control 49 days. The protocol: FIG. 2. […] The secondary BMT recipient mice were transplanted with leukemic BM blast cells collected from primary MLL-AF9 AML mice. […] Kaplan-Meier curves are shown. The P values were determined by log-rank test. (b) Wright-Giemsa staining of mouse peripheral blood (PB) and BM, or hematoxylin and eosin (H&E) staining of mouse spleen and liver of the treated or control leukemic mice. (c,d) Tet1/2/3 gene expression levels (c) or Tet1 protein level (d) in BM blast cells of the treated or control leukemic mice. *, P<0.05, two-tailed t-test. Error bar indicates SD of triplicate experiments. […] The secondary BMT recipient mice were transplanted with leukemic BM blast cells collected from the primary AE9a-AML mice. […] Kaplan-Meier curves are shown. The P values were determined by log-rank test.
(§1) Secondary mouse BMT was carried out as described previously. […] For the “5+3” treatment, AraC (Cytarabine, Bedford Laboratories) and DNR (Daunorubicin, Sigma-Aldrich) were reconstituted with PBS, filtered, and stored in aliquots at −20° C. The “5+3” therapy regimen consists of five consecutive daily doses of 50 mg/kg AraC along with 3 mg/kg DNR daily during the first three days of treatment. Drugs were delivered by tail vein and intraperitoneal injection. Weights were taken daily during treatment and doses were recalculated to ensure the mice received a consistent dose of 50 mg/kg AraC and 3 mg/kg DNR every treatment.

Series [3] has as its system FLT3-ITD/NPM1^mut AML. In words: FLT3-ITD/NPM1mut AML secondary BMT mouse model. Format: in vivo, mice. The following applies: 2.5 mg/kg i.p. once per day for 10 days; for median survival: control 21 days. How it is done:
FIG. 4. […] (a) Structures of NSC-370284 and UC-514321. […] Cells were treated with drugs at indicated doses. Cell viability was detected by MTS 48 hrs post-treatment. Error bar indicates SD of triplicate experiments. […] Secondary BMT recipient mice were transplanted with primary leukemic BM cells with MLL-AF9 (f) or AML-ETO9a (g). […] Kaplan-Meier curves are shown. The P values were determined by log-rank test. […] Secondary BMT recipient mice were transplanted with primary leukemic BM cells with MLL-AF10 or FLT3-ITD/NPM1^mut. […] Kaplan-Meier curves are shown. The P values were determined by log-rank test. (j) Wright-Giemsa staining of mouse PB and BM, or H&E staining of mouse spleen and liver of MLL-AF9 AML secondary BMT recipients with or without drug treatment.
as §1

Series [4] relates to wild-type mouse BM progenitor cells transduced with MLL-AF9. Briefly: Viability of MLL-AF9-transduced wild-type BM progenitor cells. In kind it is cell-based. To be noted: 48 hrs. The protocol:
FIG. 5. […] Gene expression levels are shown. […] ChIP-qPCR assay was carried out 48 hrs after drug treatment. Enrichment of STAT3, STAT5, or IgG at the TET1 promoter region and other regions are shown. […] BM progenitor cells of wild-type or Tet1^−/− mice were retrovirally transduced with MLL-AF9. […] Relative cell viabilities are shown. (m) Cre-Tet1f mouse BM progenitor cells were retrovirally transduced with MLL-AF9. […] Relative cell viability is shown. (n-o) THP-1 (n) and MONOMAC-6 (o) cells were infected with lentivirus of pLenti-puro vector-based Tet1 construct. […] Relative cell viability is shown. *, P<0.05; **, P<0.01, two-tailed t-test. Error bar indicates SD of triplicate experiments.
siRNAs were transfected into MONOMAC-6 cells with Cell Line Nucleofector Kit V following program T-037, using the Amaxa Nucleofector Technology (Amaxa Biosystems, Berlin, Germany). Experiments were performed 48 h after transfection. Retrovirus infection of mouse BM progenitor cells were conducted as described previously with some modifications. Briefly, retrovirus vectors were co-transfected with pCL-Eco packaging vector (IMGENEX, San Diego, Calif.) into HEK293T cells using Effectene Transfection Reagent (Qiagen, Valencia, Calif.) to produce retrovirus. […]

Series [5] can be described thus: Maximum tolerated dose and median lethal dose. In kind it is in vivo.
For series [6], the system named is THP-1 and KASUMI-1 cells. In words: Combination with daunorubicin in AML cells. In kind it is cell-based. The following applies: 25 nM compound and 100 nM DNR; 48 hours.

Like-named read-outs stand apart in the source and are kept apart here.

As usually defined, the IC50 is the midpoint of a concentration-inhibition curve. As usually defined, the LD50 is the dose at which mortality reaches 50%. Regarding `COc1cc(C(c2cc3c(cc2O)OCO3)N2CCCC2)cc(OC)c1OC` (stereo not shown) [NSC-370284, 6-(1-Pyrrolidinyl(3,4,5-trimethoxyphenyl)methyl)-1,3-benzodioxol-5-ol], the IC50 in series [1] (Homo sapiens, MONO-MAC-6, MONOMAC-6 cells, unit inferred, read-out: IC50 MMC6) came to 0.385 nM. In series [2], the mice cured is on record as 57%. Besides, the median survival in series [2] is reported as above 200 days; in series [3] it was 34 days. The cell viability result in series [4] is given as “remarkable repression of cell viability”. The LD50 in series [5] (C57BL/6, mouse, in vivo, ip, C57BL/6, I.P., read-out: LD50) is around 123 mg/kg. The MTD in series [5] (C57BL/6, mouse, in vivo, ip, mice, I.P., read-out: maximum tolerated dose) is 65 to 85.6 mg/kg. Moreover, the “Number of Death” value in series [5] (I.P. 65 mg/kg, 10 exposed) is reported as 0; in series [5] (I.P. 85.6 mg/kg, 10 exposed), 1; in series [5] (I.P. 113.5 mg/kg, 10 exposed) it was 3; in series [5] (I.P. 150 mg/kg, 10 exposed), 6; in series [5] (I.P. 200 mg/kg, 10 exposed) it was 10. The “combined effect with DNR on inhibiting viability” value in series [6] was “works synergistically”.

Take `CC(C)(C)c1cc(C(c2cc3c(cc2O)OCO3)N2CCOCC2)cc(C(C)(C)C)c1O` (stereo not shown) [UC-514321, 6-{[4-Hydroxy-3,5-bis(2-methyl-2-propanyl)phenyl](4-morpholinyl)methyl}-1,3-benzodioxol-5-ol]: in series [1] (MTS), the “MONOMAC-6 cell viability among 30 analogues” value is listed as “most significantly repressed”. Moreover, the mice cured in series [2] is 66.7%. For the same molecule, the median survival in series [2] is recorded as above 200 days; in series [3] it was above 50 days. The “prolongation of median survival” value in series [2] (versus control, 2.5 mg/kg i.p. 10 days) is listed as “over 3 folds”. Further, the “recipients that developed full-blown AML within 50 days” value in series [3] is listed as “none”. For the same molecule, the cell viability result in series [4] was “remarkable repression of cell viability”. In series [5] (C57BL/6, mouse, in vivo, ip), this molecule came in with an MTD of 65 to 85.6 mg/kg. Besides, the “Number of Death” value in series [5] (C57BL/6, mouse, in vivo, ip, 65 mg/kg) is 0; in series [5] (C57BL/6, mouse, in vivo, ip, 85.6 mg/kg), 1; in series [5] (C57BL/6, mouse, in vivo, ip, 113.5 mg/kg) it was 2; in series [5] (C57BL/6, mouse, in vivo, ip, 150 mg/kg) it was 7; in series [5] (C57BL/6, mouse, in vivo, ip, 200 mg/kg), 10. Also, the LD50 in series [5] (C57BL/6, mouse, in vivo, ip, LD50) was around 123 mg/kg. In addition, the “combined effect with DNR on inhibiting viability” value in series [6] is “works synergistically”.
